Results on 16 compounds are retold here after ChEMBL document CHEMBL3745619, “Preparation and optimization of pyrazolo[1,5-a]pyrimidines as new potent PDE4 inhibitors” (Bioorg Med Chem Lett, 2016).

As usually defined, the IC50 is the midpoint of a concentration-inhibition curve. The term inhibition denotes the relative decrease from the control value, in per cent.

The structures appear in SMILES notation. Some results are limits rather than exact numbers.

Sequence of cGMP-inhibited 3',5'-cyclic phosphodiesterase 3A (Q14432 whole entry): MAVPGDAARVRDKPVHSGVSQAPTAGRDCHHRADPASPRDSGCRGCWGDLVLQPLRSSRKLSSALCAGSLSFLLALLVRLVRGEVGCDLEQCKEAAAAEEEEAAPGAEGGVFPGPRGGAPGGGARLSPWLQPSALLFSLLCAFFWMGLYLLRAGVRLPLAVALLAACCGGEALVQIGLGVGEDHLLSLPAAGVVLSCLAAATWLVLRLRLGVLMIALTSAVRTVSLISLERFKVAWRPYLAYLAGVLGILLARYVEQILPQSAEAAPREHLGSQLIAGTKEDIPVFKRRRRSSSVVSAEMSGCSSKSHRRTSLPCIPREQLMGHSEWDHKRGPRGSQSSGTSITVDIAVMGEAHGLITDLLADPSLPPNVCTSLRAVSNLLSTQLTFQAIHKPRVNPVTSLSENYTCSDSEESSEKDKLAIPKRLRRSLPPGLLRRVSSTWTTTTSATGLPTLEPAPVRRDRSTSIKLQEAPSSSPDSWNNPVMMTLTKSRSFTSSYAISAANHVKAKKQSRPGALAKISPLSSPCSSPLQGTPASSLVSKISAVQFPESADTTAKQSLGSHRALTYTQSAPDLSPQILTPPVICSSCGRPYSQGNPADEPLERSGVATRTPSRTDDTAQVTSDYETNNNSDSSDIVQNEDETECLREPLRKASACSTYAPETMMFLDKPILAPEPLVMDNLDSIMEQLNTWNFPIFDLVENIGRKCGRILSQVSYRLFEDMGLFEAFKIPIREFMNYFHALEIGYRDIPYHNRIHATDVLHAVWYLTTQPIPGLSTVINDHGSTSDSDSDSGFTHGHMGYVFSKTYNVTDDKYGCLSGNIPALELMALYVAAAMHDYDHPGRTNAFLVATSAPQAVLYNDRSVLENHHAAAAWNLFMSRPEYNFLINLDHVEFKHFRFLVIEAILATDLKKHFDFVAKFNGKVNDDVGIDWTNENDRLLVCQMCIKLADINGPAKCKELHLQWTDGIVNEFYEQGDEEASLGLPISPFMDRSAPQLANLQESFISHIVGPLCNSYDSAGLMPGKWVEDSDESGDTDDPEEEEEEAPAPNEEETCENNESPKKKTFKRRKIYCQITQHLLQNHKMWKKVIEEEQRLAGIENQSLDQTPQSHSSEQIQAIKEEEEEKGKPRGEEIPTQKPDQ

One experiment concerns the target T1, Phosphodiesterase 4 (Homo sapiens, UniProt P27815+Q08499+Q07343+Q08493). Nature of the experiment: Inhibition of PDE4 in human SHSY-5Y cells assessed as suppression of cAMP hydrolysis by HTRF assay in presence of dye d2 labelled cAMP. Type of experiment: cell-based. The following applies: sh-sy5y. (TR-FRET usually uses a lanthanide donor and a delayed reading to cut background.)
As to `COc1cccc(Nc2c(C(N)=O)cnc3c(C)c(S(=O)(=O)c4ccccc4)nn23)c1`, the IC50 was determined as 243 nM.

In the case of `Cc1c(S(=O)(=O)c2ccccc2)nn2c(Nc3cc(Cl)cc(Cl)c3)c(C(N)=O)cnc12`, the IC50 is 5600 nM.

In the case of `COc1cccc(Nc2c(C(N)=O)cnc3c(C)cnn23)c1`, the IC50 is greater than 10000 nM.

Take `CCc1cnn2c(Nc3cccc(OC)c3)c(C(N)=O)cnc12`: the IC50 is 5400 nM.

Regarding `Cc1cnn2c(Nc3cc(Cl)cc(Cl)c3)c(C(N)=O)cnc12`, the IC50 was greater than 10000 nM.

On to `CC(C)c1c(S(C)(=O)=O)nn2c(Nc3cc(Cl)cc(Cl)c3)c(C(N)=O)cnc12`, for which the IC50 is recorded as 507 nM.

Regarding `COc1cccc(Nc2c(C(N)=O)cnc3c(C)c(S(=O)(=O)c4cccc(C(=O)N(C)C)c4)nn23)c1`, the IC50 came to 629 nM.

Regarding `CSc1nn2c(Nc3cc(Cl)cc(Cl)c3)c3c(nc2c1C)CCNC3=O`, the IC50 is recorded as 480 nM.

On to `Cc1c(S(C)(=O)=O)nn2c(Nc3cc(Cl)cc(Cl)c3)c(C(N)=O)cnc12`, for which the IC50 stood at 1500 nM.

Regarding `Cc1c(S(C)(=O)=O)nn2c(Nc3cc(Cl)cc(Cl)c3)c3c(nc12)CCNC3=O`, the IC50 was 5 nM.

Regarding `COc1cccc(Nc2c3c(nc4c(C)c(S(C)(=O)=O)nn24)CCNC3=O)c1`, the IC50 is recorded as 8 nM.

With `COc1cccc(Nc2c(C(N)=O)cnc3c(C(C)C)c(S(C)(=O)=O)nn23)c1`, the IC50 stood at 270 nM.

On to `COc1cccc(Nc2c(C(N)=O)cnc3c(C)c(S(C)(=O)=O)nn23)c1`, for which the IC50 came to 1820 nM.

Take `Cc1cnn2c(Nc3ccccc3)c(C(N)=O)cnc12`: the IC50 was greater than 10000 nM.

Consider `CNC(=O)c1cnc2c(C)cnn2c1Nc1cccc(OC)c1`, for which the IC50 was greater than 10000 nM.

`Cc1c(S(=O)(=O)c2cccc(C(=O)N(C)C)c2)nn2c(Nc3cc(Cl)cc(Cl)c3)c(C(N)=O)cnc12`: the half-inhibitory concentration (IC50) stood at 130 nM.

For a further experiment, the target named is 3',5'-cyclic-AMP phosphodiesterase 4B (Homo sapiens, UniProt Q07343). The experiment is described as follows: Inhibition of human recombinant PDE4B1 expressed in insect Sf9 cells by fluorescence capillary-electrophoresis assay.
Sequence of 3',5'-cyclic-AMP phosphodiesterase 4B (Q07343 whole entry): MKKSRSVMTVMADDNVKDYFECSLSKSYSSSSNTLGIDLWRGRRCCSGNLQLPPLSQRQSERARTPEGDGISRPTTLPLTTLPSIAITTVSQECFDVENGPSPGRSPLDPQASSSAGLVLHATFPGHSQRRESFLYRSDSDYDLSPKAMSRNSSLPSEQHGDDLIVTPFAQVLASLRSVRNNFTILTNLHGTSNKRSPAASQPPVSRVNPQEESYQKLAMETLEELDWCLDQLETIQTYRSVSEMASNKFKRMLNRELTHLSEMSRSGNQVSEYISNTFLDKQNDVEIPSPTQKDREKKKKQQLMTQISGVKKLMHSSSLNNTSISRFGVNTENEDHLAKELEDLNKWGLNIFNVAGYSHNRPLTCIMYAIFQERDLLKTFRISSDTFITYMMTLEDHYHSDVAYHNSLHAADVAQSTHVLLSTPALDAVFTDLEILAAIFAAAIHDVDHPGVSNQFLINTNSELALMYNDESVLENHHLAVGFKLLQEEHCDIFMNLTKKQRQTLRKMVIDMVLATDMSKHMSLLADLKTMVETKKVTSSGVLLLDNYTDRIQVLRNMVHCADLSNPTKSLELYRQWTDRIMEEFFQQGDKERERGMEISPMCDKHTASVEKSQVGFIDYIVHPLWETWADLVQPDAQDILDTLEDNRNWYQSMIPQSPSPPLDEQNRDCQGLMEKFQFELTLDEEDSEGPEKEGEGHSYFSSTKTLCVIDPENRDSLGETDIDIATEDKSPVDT
Details: not given
Take `COc1cccc(Nc2c(C(N)=O)cnc3c(C)c(S(=O)(=O)c4ccccc4)nn23)c1`: the IC50 is 4 nM.

`Cc1c(S(=O)(=O)c2ccccc2)nn2c(Nc3cc(Cl)cc(Cl)c3)c(C(N)=O)cnc12`: the IC50 was determined as 7 nM.

`COc1cccc(Nc2c(C(N)=O)cnc3c(C)cnn23)c1`: the IC50 was determined as 165 nM.

For `CCc1cnn2c(Nc3cccc(OC)c3)c(C(N)=O)cnc12`, the IC50 came out at 38 nM.

For `Cc1cnn2c(Nc3cc(Cl)cc(Cl)c3)c(C(N)=O)cnc12`, the IC50 came to 16 nM.

In the case of `CC(C)c1c(S(C)(=O)=O)nn2c(Nc3cc(Cl)cc(Cl)c3)c(C(N)=O)cnc12`, the IC50 turned out to be 6 nM.

Regarding `COc1cccc(Nc2c(C(N)=O)cnc3c(C)c(S(=O)(=O)c4cccc(C(=O)N(C)C)c4)nn23)c1`, the IC50 worked out at 0.7 nM.

Take `CSc1nn2c(Nc3cc(Cl)cc(Cl)c3)c3c(nc2c1C)CCNC3=O`: the IC50 was 0.2 nM.

Consider `Cc1c(S(C)(=O)=O)nn2c(Nc3cc(Cl)cc(Cl)c3)c(C(N)=O)cnc12`, for which the IC50 came out at 7 nM.

As to `Cc1c(S(C)(=O)=O)nn2c(Nc3cc(Cl)cc(Cl)c3)c3c(nc12)CCNC3=O`, the IC50 came to 0.03 nM.

With `COc1cccc(Nc2c3c(nc4c(C)c(S(C)(=O)=O)nn24)CCNC3=O)c1`, the IC50 amounted to 0.1 nM.

As for `COc1cccc(Nc2c(C(N)=O)cnc3c(C(C)C)c(S(C)(=O)=O)nn23)c1`, the IC50 was 5 nM.

On to `COc1cccc(Nc2c(C(N)=O)cnc3c(C)c(S(C)(=O)=O)nn23)c1`, for which the IC50 worked out at 26 nM.

Regarding `Cc1cnn2c(Nc3ccccc3)c(C(N)=O)cnc12`, the IC50 turned out to be 1950 nM.

With `CNC(=O)c1cnc2c(C)cnn2c1Nc1cccc(OC)c1`, the IC50 was greater than 10000 nM.

In the case of `Cc1c(S(=O)(=O)c2cccc(C(=O)N(C)C)c2)nn2c(Nc3cc(Cl)cc(Cl)c3)c(C(N)=O)cnc12`, the IC50 was determined as 0.2 nM.

Another experiment addresses cGMP-inhibited 3',5'-cyclic phosphodiesterase 3A (Homo sapiens, UniProt Q14432). The experiment is described as follows: Inhibition of human recombinant PDE3 by fluorescence capillary-electrophoresis assay.
Details: not given
For the compound `COc1cccc(Nc2c(C(N)=O)cnc3c(C)cnn23)c1`, the IC50 is greater than 10000 nM.

Another experiment addresses T1, Phosphodiesterase 4. The experiment is described as follows: Inhibition of PDE4 in human SHSY-5Y cells assessed as suppression of cAMP hydrolysis at 10 uM by HTRF assay in presence of dye d2 labelled cAMP. In kind it is cell-based. The following applies: SH-SY5Y.
`COc1cccc(Nc2c(C(N)=O)cnc3c(C)cnn23)c1`: the inhibition is less than 50%.
